Tested on: focal cerebral ischemia induced by middle cerebral artery occlusion and reperfusion (MCAO/R)
Experiment: Rodent cerebral ischemia model (MCAO/R): volume of cerebral infarction area by TTC staining
Format: in vivo, mice (C57/BL6)
Conditions: for cerebral infarction volume due to focal cerebral ischemia (FIG. 3): TTC-stained brain slices, ImageJ, *** p<0.001
Procedure: 12- to 13-week-old male mice (C57/BL6) were used in the experiment. The mice were divided into four groups of five each (three in the Sham group): Sham (surgical control group), stroke surgery group (Stroke), stroke+sobrerol-L (administration of 10 mg/kg of SOB-L), and stroke+sobrerol-H (administration of 40 mg/kg of SOB-H). According to the schematic view shown in FIG. 1, middle cerebral artery occlusion and reperfusion operation (MCAO/R) was performed to induce focal cerebral ischemia. After MCAO/R surgery, sobrerol was orally administered at concentrations of 10 mg/kg and 40 mg/kg. In the Sham and Stroke control groups, saline was orally administered. Neurological deficit tests were performed 22-23 hours after MCAO/R (n=5). After re-anesthesia, cardiac reperfusion in mice was carried out with PBS solution, and the brains were immediately removed and stained with 2% TTC (2,3,5-triphenyl-tetrazolium chloride) solution. TTC-stained slices were obtained from the mice in four groups, particularly Sham (surgical control group), stroke surgery group (Stroke), stroke+sobrerol-L (administration of 10 mg/kg of SOB-L), and stroke+sobrerol-H (administration of 40 mg/kg of SOB-H), and the volume of the cerebral infarction area was measured. Quantification was measured using ImageJ.

CC1=CCC(C(C)(C)O)CC1O (centres unmarked) [sobrerol, 5-(2-hydroxypropan-2-yl)-2-methylcyclohex-2-en-1-ol]
cerebral infarction volume due to focal cerebral ischemia (FIG. 3) (10 mg/kg oral after MCAO/R (sobrerol-L)): significantly reduced
damage status of ischemic brain tissue in TTC-stained slices (FIG. 2) (40 mg/kg oral (stroke+sobrerol-H) compared to sobrerol-L, Stroke and Sham groups, red area = undamaged, white = infarction): undamaged
cerebral infarction volume due to focal cerebral ischemia (FIG. 3) (40 mg/kg oral after MCAO/R (sobrerol-H)): significantly reduced
damage status of ischemic brain tissue in TTC-stained slices (FIG. 2) (group orally administered sobrerol compared to the other groups, dose not given): red undamaged area without cerebral infarction area
infarction size (stroke animal model, compared to the group not administered a stroke drug, dose not stated): decrease
